These results are taken from article PMC7567588 (Science Advances, 2020).

*: point of attachment. ACC = NC(=O)Cc1cc(=O)oc2cc(N*)ccc12

The target of experiment [1] is T1, human DUB UCH-L3 (Homo sapiens, UniProt P15374). It is filed as biochemical.
For experiment [2], the system named is human DUBs in HeLa lysates. It is filed as biochemical.
Experiment [3] addresses T2, SARS-CoV-2 PLpro (Severe acute respiratory syndrome coronavirus 2, UniProt P0DTD1).
For experiment [4], the target named is T1, human DUB UCH-L3. It is filed as biochemical. The source holds these as a separate data set.
Experiment [5] addresses T2, SARS-CoV-2 PLpro. The source holds these as a separate data set.

T1 sequence (P15374 whole entry, looked up): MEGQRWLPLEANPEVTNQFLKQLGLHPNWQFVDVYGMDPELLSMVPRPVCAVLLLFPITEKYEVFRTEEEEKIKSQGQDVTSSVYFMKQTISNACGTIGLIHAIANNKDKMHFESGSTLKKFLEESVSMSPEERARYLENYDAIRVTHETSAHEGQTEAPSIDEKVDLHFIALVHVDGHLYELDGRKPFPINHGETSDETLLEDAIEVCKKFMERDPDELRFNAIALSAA

As to Ac-Abu(Bth)-Dap-Gly-Gly-VME [VIR250], the “inhibition of DUB activity (residual activity)” value was “practically no inhibition” against human DUB UCH-L3 [1] and “robustly inhibit” against SARS-CoV-2 PLpro [3]. Moreover, the “Ub-VME cross-linking profile of HeLa lysates on titration of inhibitor” value in experiment [2] was “unaltered”.
In the case of Ac-LRGG-{ACC} [Ac-LRGG-ACC], the “substrate recognition (hydrolysis rate, RFU/s)” value on human DUB UCH-L3 [4] and at SARS-CoV-2 PLpro [5] was “recognized” in each case.
